# Laboratory results reported in patent US20260083865A1, “PROSTATE SPECIFIC MEMBRANE ANTIGEN (PSMA) LIGANDS AND USE THEREOF” (priority 2022, published 2026).
# Like-named read-outs stand apart in the source and are kept apart here. Numbered stars: 1 amine (or outer) side, 2 acyl side, 3 side chain; on linkers, the order of the positions; unused ones are H or OH. Bridge positions count the residues as written; N and C are the ends. Square brackets hold non-standard residues; d marks the D form. Side chains are listed from the residue outwards. Peptide text beside a SMILES is read from it. * marks the point of attachment. Acetyl(1-DOTA-4-piperidyl) = O=C(O)CN1CCN(CC(=O)O)CCN(CC(=O)N2CCC(CC(=O)*)CC2)CCN(CC(=O)O)CC1; X3 = O=C(O)CN1CCN(CC(=O)O)CCN(CC(=O)NCCCOCCOCCOCCCN*)CCN(CC(=O)O)CC1; X2 = O=C(O)CN1CCN(CC(=O)O)CCN([C@H](CCC(=O)*)C(=O)O)CCN(CC(=O)O)CC1; DOTA = O=C(O)CN1CCN(CC(=O)O)CCN(CC(=O)*)CCN(CC(=O)O)CC1; Phe(3-Cl) = N[C@@H](Cc1cccc(Cl)c1)C(=O)O; Phe(4-Cl) = N[C@@H](Cc1ccc(Cl)cc1)C(=O)O; Ethylenediamine = C(CN[*:2])N[*:1]; X1 = O=C(CC1CCN([*:1])CC1)[*:2]; Cit = NC(=O)NCCC[C@H](N)C(=O)O; Suc = O=C(CCC(=O)[*:2])[*:1]; Tle = CC(C)(C)[C@H](N)C(=O)O; Propanoyl(3-OH) = O=C(CCO)*; 4Amb = NCc1ccc(C(=O)O)cc1; Hexanoyl = CCCCCC(=O)*; AEEA = NCCOCCOCC(=O)O; Aib = CC(C)(N)C(=O)O
# How the values were obtained:
# [1] = target: T1, PSMA-expressing C4-2 cells (Homo sapiens, UniProt Q04609); assay: FACS binding assay (competition with 50 nM PSM-0183); conditions: FACS binding, read-out: pIC50 [C4-2] CAT (converted)
# T1 construct: PSMA-expressing C4-2 cells (ATCC, Cat. No. CRL-3314) were cultured in RPMI-1640; host or cells: C4-2 cells
# How it was run: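 C4-2 cells were incubated 1 h at 4 °C with 50 nM AF488-labelled peptide PSM-0183 plus increasing test compound concentrations, then washed twice in ice-cold buffer. Median fluorescence in the AF488 channel was read by flow cytometry. IC50/pIC50 was derived by 4PL fitting of MFI versus concentration.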
# [2] = target: T2, Fc-fusion protein of human PSMA (hPSMA-Fc) (Homo sapiens, UniProt Q04609); assay: Surface plasmon resonance assay (Biacore T200, single cycle kinetic); format: binding; conditions: hPSMA-Fc, 25° C., read-out: pKD CAT (converted)
# T2 construct: purchased Acro Biosystems PSA-H5264
# How it was run: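 hPSMA-Fc was captured (~1000 RU) on an Fc-binding-peptide CM5 chip, and compounds were run in single cycle kinetic mode at 25° C in HBST with 0.1% DMSO. Double-blank-corrected sensorgrams were fitted to a 1:1 Langmuir model to give KD, reported as pKD.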
# PC3-PIP tumor model = system: PC3-PIP tumor model; set-up: species or system mice; conditions: mouse, in vivo
# Description: Radioactively labeled compounds can be detected by imaging methods such as SPECT and PET. Furthermore, the data acquired by such techniques can be confirmed by direct measurement of radioactivity contained in the individual organs prepared from an animal injected with a radioactively labeled compound of the disclosure. Thus, the biodistribution (the measurement of radioactivity in individual organs) of a radioactively labeled compound can be determined and analyzed. […] All animal experiments were conducted in compliance with the German animal protection laws. Male swiss or NMRI nude mice (6-8 weeks old, Janvier Labs, France) were inoculated with 5×10^6 PC3-PIP cells in the right shoulder. For selected compounds an additional model was used, here male NMRI nude mice (6-8 weeks old, Janvier Labs, France) were inoculated with 5×10^6 or/1×10^7 C4-2 cells in the right shoulder. When tumors reached an appropriate size, the mice received ˜30 MBq ^111In-labeled compounds of the disclosure (diluted to 100 μL with PBS) administered intravenously via the tail vein. Images were obtained on a NanoSPECT/computed tomography system (Mediso Medical Imaging Systems, Budapest, Hungary) using exemplarily the following acquisition and reconstruction parameters (Table 10). [table] Imaging data were saved as DICOM files and analysed using VivoQuant™ software (Invicro, Boston, USA). In brief, regions of interest (ROIs) were drawn based on computed tomography images for the relevant organs and tissue regions such as heart (estimate of blood pool, bps), kidney, and tumor. The resulting numeric data expressed as a percentage of injected dose per gram of tissue (% ID/g) are presented in FIGS. 3(a)-3(ii) for the PC3-PIP model and FIGS. 4(a)-4(r) for the C4-2 model. Bars show mean % ID/g values of two to three animals per time point. Error bars indicate the value range (minimum and maximum values).
# [3] = C4-2 cells, competition with 50 nM PSM-0183, category
# [4] = SPR, single cycle kinetic, category
# [5] = PSMA-expressing C4-2 cells, pIC50 category
# T2 sequence (Q04609 44-750 limits assumed): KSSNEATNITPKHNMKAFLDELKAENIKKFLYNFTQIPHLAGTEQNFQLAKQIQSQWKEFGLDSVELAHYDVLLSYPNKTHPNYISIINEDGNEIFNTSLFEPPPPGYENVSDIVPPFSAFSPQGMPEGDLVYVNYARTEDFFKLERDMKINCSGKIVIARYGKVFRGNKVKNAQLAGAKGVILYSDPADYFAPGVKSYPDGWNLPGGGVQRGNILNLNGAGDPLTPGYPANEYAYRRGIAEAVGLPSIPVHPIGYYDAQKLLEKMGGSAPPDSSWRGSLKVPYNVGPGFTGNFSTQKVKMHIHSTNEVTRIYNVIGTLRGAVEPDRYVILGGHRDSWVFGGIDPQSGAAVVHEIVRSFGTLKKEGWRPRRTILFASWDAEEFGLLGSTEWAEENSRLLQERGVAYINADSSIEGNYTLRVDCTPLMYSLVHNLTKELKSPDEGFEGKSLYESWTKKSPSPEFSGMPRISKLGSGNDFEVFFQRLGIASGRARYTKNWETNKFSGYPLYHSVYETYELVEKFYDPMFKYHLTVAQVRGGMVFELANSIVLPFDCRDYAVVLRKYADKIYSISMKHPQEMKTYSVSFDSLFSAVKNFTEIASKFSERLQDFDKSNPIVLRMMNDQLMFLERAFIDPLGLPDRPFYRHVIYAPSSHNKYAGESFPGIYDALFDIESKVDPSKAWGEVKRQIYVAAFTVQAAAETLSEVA
# T1 sequence (Q04609 whole entry): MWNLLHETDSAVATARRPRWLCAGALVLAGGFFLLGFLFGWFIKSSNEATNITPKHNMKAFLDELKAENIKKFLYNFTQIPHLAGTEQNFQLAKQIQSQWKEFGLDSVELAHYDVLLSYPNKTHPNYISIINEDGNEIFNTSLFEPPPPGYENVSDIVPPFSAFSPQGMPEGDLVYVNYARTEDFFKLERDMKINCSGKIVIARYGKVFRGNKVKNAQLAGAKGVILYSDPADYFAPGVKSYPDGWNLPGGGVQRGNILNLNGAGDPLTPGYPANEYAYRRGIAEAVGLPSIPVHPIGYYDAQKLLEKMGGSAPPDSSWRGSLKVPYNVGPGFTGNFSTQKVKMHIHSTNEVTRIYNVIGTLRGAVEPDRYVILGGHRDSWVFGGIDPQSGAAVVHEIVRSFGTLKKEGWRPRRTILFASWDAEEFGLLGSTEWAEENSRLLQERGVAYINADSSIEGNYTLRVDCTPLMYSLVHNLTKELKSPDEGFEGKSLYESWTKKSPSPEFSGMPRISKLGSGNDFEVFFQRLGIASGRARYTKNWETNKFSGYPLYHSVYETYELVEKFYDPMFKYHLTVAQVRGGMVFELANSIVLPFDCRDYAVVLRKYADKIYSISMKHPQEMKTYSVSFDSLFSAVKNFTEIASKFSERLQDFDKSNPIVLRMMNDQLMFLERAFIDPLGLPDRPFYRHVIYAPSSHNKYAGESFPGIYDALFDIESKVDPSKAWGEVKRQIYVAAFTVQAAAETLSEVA
SMILES,"IC50 [1, 3]","Kd [2, 4]",AUC ratio [T/K] (PC3-PIP tumor model),Tumor AUC (PC3-PIP tumor model),"IC50 [1, 5]","Kd ([2]; PSMA SPR assay, pKD category)"
"C[C@@H](O)[C@H](NC(=O)CN1CCN(CC(=O)O)CCN(CC(=O)O)CCN(CC(=O)O)CC1)C(=O)NC(C)(C)C(=O)N[C@@H](Cc1ccccc1)C(=O)N[C@H]1CSSC[C@@H](C(=O)N[C@H](C(=O)NCCN)C(C)(C)C)NC(=O)[C@H](CC(N)=O)NC(=O)C(C)(C)NC(=O)[C@H](CCCNC(=N)N)NC(=O)[C@H](CCCCN)NC1=O [PSM-0199, DOTA-Thr-Aib-Phe-[Cys-Lys-Arg-Aib-Asn-Cys]-Tle-en] ({DOTA}-T[Aib]FCKR[Aib]NC[Tle]-Ethylenediamine; disulfide 4-9)",< 0.2 µM,< 0.0126 µM,0.33,170 % ID/g*h,–,–
"C[C@@H](O)[C@H](NC(=O)[C@@H](NC(=O)[C@@H]1CSSC[C@H](NC(=O)[C@H](Cc2ccccc2)NC(=O)C(C)(C)NC(=O)[C@@H](NC(=O)CC2CCN(C(=O)CC[C@H](C(=O)O)N3CCN(CC(=O)O)CCN(CC(=O)O)CCN(CC(=O)O)CC3)CC2)[C@@H](C)O)C(=O)N[C@@H](CCCCN)C(=O)N[C@@H](CCCNC(=N)N)C(=O)NC(C)(C)C(=O)N[C@@H](CC(N)=O)C(=O)N1)C(C)(C)C)C(N)=O [PSM-0218, DOTAGA-Cmp-Thr-Aib-Phe-[Cys-Lys-Arg-Aib-Asn-Cys]-Tle-Thr-NH2] (X2-[X1]T[Aib]FCKR[Aib]NC[Tle]T-NH2; disulfide 5-10)",< 0.2 µM,< 0.0126 µM,1.2,150 % ID/g*h,–,–
"C[C@@H](O)[C@H](NC(=O)[C@@H](NC(=O)[C@@H]1CSSC[C@H](NC(=O)[C@H](Cc2ccccc2)NC(=O)C(C)(C)NC(=O)[C@@H](NC(=O)CCC(=O)NCCCOCCOCCOCCCNC(=O)CN2CCN(CC(=O)O)CCN(CC(=O)O)CCN(CC(=O)O)CC2)[C@@H](C)O)C(=O)N[C@@H](CCCCN)C(=O)N[C@@H](CCCNC(N)=O)C(=O)NC(C)(C)C(=O)N[C@@H](CC(N)=O)C(=O)N1)C(C)(C)C)C(N)=O [PSM-0234, DOTA-Ttds-Thr-Aib-Phe-[Cys-Lys-Cit-Aib-Asn-Cys]-Tle-Thr-NH2] ({X3-Suc}-T[Aib]FCK[Cit][Aib]NC[Tle]T-NH2; disulfide 4-9)",0.2 to 1.26 µM,0.0126 to 0.126 µM,0.64,62 % ID/g*h,–,–
"C[C@@H]1NC(=O)[C@H](CCCNC(=N)N)NC(=O)[C@H](CCCCN)NC(=O)[C@@H](NC(=O)[C@H](Cc2ccccc2)NC(=O)C(C)(C)NC(=O)[C@@H](NC(=O)CCC(=O)NCCCOCCOCCOCCCNC(=O)CN2CCN(CC(=O)O)CCN(CC(=O)O)CCN(CC(=O)O)CC2)[C@@H](C)O)CSSC[C@@H](C(=O)N[C@H](C(=O)N[C@H](C(N)=O)[C@@H](C)O)C(C)(C)C)NC(=O)[C@H](CC(N)=O)NC1=O [PSM-0237, DOTA-Ttds-Thr-Aib-Phe-[Cys-Lys-Arg-Ala-Asn-Cys]-Tle-Thr-NH2] ({X3-Suc}-T[Aib]FCKRANC[Tle]T-NH2; disulfide 4-9)",< 0.2 µM,< 0.0126 µM,0.44,180 % ID/g*h,–,–
"CCCCCC(=O)N[C@H](C(=O)NC(C)(C)C(=O)N[C@@H](Cc1ccc(Cl)cc1)C(=O)N[C@H]1CSSC[C@@H](C(=O)N[C@H](C(=O)N[C@H](C(=O)N[C@H](CCCCNC(=O)CC2CCN(C(=O)CN3CCN(CC(=O)O)CCN(CC(=O)O)CCN(CC(=O)O)CC3)CC2)C(N)=O)[C@@H](C)O)C(C)(C)C)NC(=O)[C@H](CC(N)=O)NC(=O)C(C)(C)NC(=O)[C@H](CCCNC(N)=O)NC(=O)[C@H](CCCCN)NC1=O)[C@@H](C)O [PSM-0239, Hex-Thr-Aib-Pcf-[Cys-Lys-Cit-Aib-Asn-Cys]-Tle-Thr-lys(DOTA-Cmp)-NH2] (Hexanoyl-T[Aib][Phe(4-Cl)]CK[Cit][Aib]NC[Tle]T[dK](Acetyl(1-DOTA-4-piperidyl))-NH2; disulfide 4-9)",< 0.2 µM,< 0.0126 µM,1.2,210 % ID/g*h,–,–
"C[C@@H](O)[C@H](NC(=O)CC1CCN(C(=O)CN2CCN(CC(=O)O)CCN(CC(=O)O)CCN(CC(=O)O)CC2)CC1)C(=O)NC(C)(C)C(=O)N[C@@H](Cc1ccccc1)C(=O)N[C@H]1CSSC[C@@H](C(=O)N[C@H](C(=O)NCCN)C(C)(C)C)NC(=O)[C@H](CC(N)=O)NC(=O)C(C)(C)NC(=O)[C@H](CCCNC(=N)N)NC(=O)[C@H](CCCCN)NC1=O [PSM-0241, DOTA-Cmp-Thr-Aib-Phe-[Cys-Lys-Arg-Aib-Asn-Cys]-Tle-en] ({DOTA}-[X1]T[Aib]FCKR[Aib]NC[Tle]-Ethylenediamine; disulfide 5-10)",< 0.2 µM,< 0.0126 µM,0.54,300 % ID/g*h,–,–
"CC(=O)N[C@H](C(=O)NC(C)(C)C(=O)N[C@@H](Cc1cccc(Cl)c1)C(=O)N[C@H]1CSSC[C@@H](C(=O)N[C@H](C(=O)N[C@H](C(N)=O)[C@@H](C)O)C(C)(C)C)NC(=O)[C@H](CC(N)=O)NC(=O)[C@H](CCCCNC(=O)COCCOCCNC(=O)CN2CCN(CC(=O)O)CCN(CC(=O)O)CCN(CC(=O)O)CC2)NC(=O)[C@H](CCCNC(=N)N)NC(=O)[C@H](CCCCN)NC1=O)[C@@H](C)O [PSM-0243, Ac-Thr-Aib-Mcf-[Cys-Lys-Arg-Lys(DOTA-O2Oc)-Asn-Cys]-Tle-Thr-NH2] (Ac-T[Aib][Phe(3-Cl)]CKRK([AEEA-DOTA])NC[Tle]T-NH2; disulfide 4-9)",< 0.2 µM,< 0.0126 µM,0.53,130 % ID/g*h,–,–
"C[C@@H](O)[C@H](NC(=O)[C@@H](NC(=O)[C@@H]1CSSC[C@H](NC(=O)[C@H](Cc2ccc(Cl)cc2)NC(=O)C(C)(C)NC(=O)CCO)C(=O)N[C@@H](CCCCN)C(=O)N[C@@H](CCCNC(=N)N)C(=O)NC(C)(C)C(=O)N[C@@H](CC(N)=O)C(=O)N1)C(C)(C)C)C(=O)N[C@H](CCCCNC(=O)CN1CCN(CC(=O)O)CCN(CC(=O)O)CCN(CC(=O)O)CC1)C(N)=O [PSM-0267, HPA-Aib-Pcf-[Cys-Lys-Arg-Aib-Asn-Cys]-Tle-Thr-lys(DOTA)-NH2] ({Propanoyl(3-OH)}-[Aib][Phe(4-Cl)]CKR[Aib]NC[Tle]T[dK](DOTA)-NH2; disulfide 3-8)",< 0.2 µM,< 0.0126 µM,1.2,170 % ID/g*h,–,–
"CC(=O)N[C@H](C(=O)NC(C)(C)C(=O)N[C@@H](Cc1ccc(Cl)cc1)C(=O)N[C@H]1CSSC[C@@H](C(=O)N[C@H](C(=O)NCCNC(=O)CN2CCN(CC(=O)O)CCN(CC(=O)O)CCN(CC(=O)O)CC2)C(C)(C)C)NC(=O)[C@H](CC(N)=O)NC(=O)C(C)(C)NC(=O)[C@H](CCCNC(=N)N)NC(=O)[C@H](CCCCN)NC1=O)[C@@H](C)O [PSM-0269, Ac-Thr-Aib-Pcf-[Cys-Lys-Arg-Aib-Asn-Cys]-Tle-en-DOTA] (Ac-T[Aib][Phe(4-Cl)]CKR[Aib]NC[Tle]-{Ethylenediamine-DOTA}; disulfide 4-9)",–,–,0.87,150 % ID/g*h,< 0.2 µM,< 0.0126 µM
"CC(C)(NC(=O)c1ccc(CNC(=O)CN2CCN(CC(=O)O)CCN(CC(=O)O)CCN(CC(=O)O)CC2)cc1)C(=O)N[C@@H](Cc1ccc(Cl)cc1)C(=O)N[C@H]1CSSC[C@@H](C(=O)N[C@H](C(=O)NCCN)C(C)(C)C)NC(=O)[C@H](CC(N)=O)NC(=O)C(C)(C)NC(=O)[C@H](CCCNC(=N)N)NC(=O)[C@H](CCCCN)NC1=O [PSM-0273, DOTA-Pamb-Aib-Pcf-[Cys-Lys-Arg-Aib-Asn-Cys]-Tle-en] ({DOTA-4Amb}-[Aib][Phe(4-Cl)]CKR[Aib]NC[Tle]-Ethylenediamine; disulfide 3-8)",–,–,0.21,110 % ID/g*h,< 0.2 µM,< 0.0126 µM
